The record followed here is US9126999B2, “Tetrahydropyrazolopyrimidine compounds” (EISAI R&D MANAGEMENT CO., LTD., priority 2012, dated 2015).

Molecules are shown by their SMILES. “Also recorded” adds a separate entry of the source.

The subject of one experiment is NZBWF1/J mice. Kind of experiment: NZBxNZW strain lupus disease model. The format is in vivo, mouse. To be noted: NZB/W model; for anti-dsDNA titers: QD PO; for proteinuria: UACR. The method, then: Figure Legend: Female NZBWF1/J mice were received at 6 weeks of age, baseline bleeds were performed, and mice were monitored for disease progression by following anti-dsDNA titers. At 20 weeks of age, mice were randomized into groups with equivalent median anti-dsDNA titers and treated at 23 weeks of age with Vehicle (Veh; 0.5% methyl-cellulose) alone or 33, 100, or 300 mg/kg ER-892887 once-a-day orally (QD PO). All mice were sacrificed at 45 weeks of age (22 weeks total treatment) and blood plasma anti-dsDNA titers were determined by ELISA. (A) Impact of ER-892887 treatment over time on anti-dsDNA titers. (B) Bar graph of +22 weeks treatment data for ER-892887 derived from data shown in (A). (C) Just prior to termination at 45 weeks of age (following 22 weeks of treatment), urine was collected from individual mice, and the Urinary Albumin Creatinine Ratio (UACR, proteinuria) was determined for each animal as an indirect measure of kidney function. (D) Summary of mortality observed in this study. (E) At the time of sacrifice, kidneys were collected from individual mice, fixed in 10% formalin for 24 hours, embedded in paraffin, and H&E stained sections were generated for histopathology assessment in a blinded fashion. Statistical significance was determined by Mann-Whitney test for (C).
Figure Legend. Female NZBWF1/J mice were received at 8 weeks of age, baseline bleeds were performed, and mice were monitored for disease progression by following anti-dsDNA titers. At 24 weeks of age, mice were randomized into groups with equivalent median anti-dsDNA titers and treated at 25 weeks of age QD PO with Vehicle (Veh; 0.5% methyl-cellulose) alone or 33, 100, or 300 mg/kg ER-892887. Anti-dsDNA titers were determined by ELISA on blood plasma samples at the time points indicated. (A) Impact of compound treatment on median anti-dsDNA titers over time up to +17 weeks of treatment. (B) Impact of compound treatment on median anti-dsDNA at the +13 weeks of treatment time point only from data shown in (A). (C) After 13 weeks (top graph) or 17 weeks (bottom graph) of compound treatment, urine was collected from individual mice, and the Urinary Albumin Creatinine Ratio (UACR, proteinuria) was determined for each animal as an indirect measure of kidney function. Mice indicated within the circle with high UACR were those animals that died between the +13 wks and +17 wks of treatment (statistical significance was determined by Mann-Whitney test). (D) Blood urea nitrogen (BUN) measured in the plasma from select groups after 13 weeks of treatment. (E) Mortality curves for Vehicle versus compound treated mice up to 17 weeks of treatment. […] (F) Summary of mortality observed in this study.
Figure Legend: Female NZBWF1/J mice were received at 6 weeks of age, baseline bleeds were performed, and mice were monitored for disease progression by following anti-dsDNA titers. At 24 weeks of age, mice were randomized into groups with equivalent median anti-dsDNA titers and treated with Vehicle (Veh; 0.5% methyl-cellulose) alone or 300 mg/kg ER-885454 once-a-day orally (QD PO). All mice were sacrificed at 47 weeks of age (23 weeks total treatment) and blood plasma anti-dsDNA titers were determined by ELISA (A). (B) Just prior to termination at 47 weeks of age, urine was collected from individual mice, and Urinary Albumin Creatinine Ratio (UACR, proteinuria) was determined for each animal as an indirect measure of kidney function. (C) At the time of sacrifice, kidneys were collected from individual mice, fixed in 10% formalin for 24 hours, embedded in paraffin, and H&E stained sections were generated for histopathology assessment in a blinded fashion. Statistical significance was determined by Mann-Whitney test for (A) above.
Figure Legend: Female NZBWF1/J mice were received at 4 weeks of age, baseline bleeds were performed at 10 and 26 weeks, and mice were monitored for disease progression by following anti-dsDNA titers and proteinuria. […]

Experiment [1] has as its system mouse lupus disease models. Kind of experiment: SLE disease models, summary of findings. The format is in vivo. As to conditions: summary over lupus models. The method, then: Male BXSB-Yaa and female NZBWF1/J mice were purchased from Jackson Labs (Bar Harbor, Me.), both of which manifest with spontaneous lupus disease. Female DBA/1 mice were purchased from Harlan Laboratories (Indianapolis, Ind.) and at the indicated ages given an intraperitoneal injection of 0.5 ml pristane (2,6,10,14-Tetramethylpentadecane; Sigma, St. Louis, Mo.) to chemically induce lupus disease or of 0.5 ml PBS to generate age-matched, non-diseased control mice. Mice were dosed daily by oral administration of compound or drug in 0.5% methylcellulose, for the time period indicated.

Take `COc1ccc([C@@H]2C[C@H](C(F)(F)F)n3nc(-c4ccncc4)cc3N2)cc1OC` [ER-885454]: in the experiment with NZBWF1/J mice, the “histological signs of glomerulonephritis” value is “reduced”, the anti-dsDNA titers entry is listed as “reduced” and the proteinuria result is listed as “reduced”. In experiment [1], the “kidney disease as manifested by proteinuria and histologic changes” value is “suppressed”; the “production of several autoantibody specificities” value is listed as “limited”.

Regarding `COc1ccc([C@@H]2C[C@H](C(F)(F)F)n3nc(-c4ccc(C(=O)N5CCNCC5)cc4)cc3N2)cc1OC` [ER-892887, (4-((5S,7R)-5-(3,4-dimethoxyphenyl)-7-(trifluoromethyl)-4,5,6,7-tetrahydropyrazolo[1,5-a]pyrimidin-2-yl)phenyl)(piperazin-1-yl)methanone], in the experiment with NZBWF1/J mice, the “delay of development of proteinuria compared with two drugs commonly used in the treatment of human lupus” value is reported as “more effectively”; the “efficacy in combination with hydroxychloroquine and prednisolone” value was “efficacious”; the “histological signs of glomerulonephritis” value is on record as “reduced”; the anti-dsDNA titers result was “reduced”. Further, in the experiment on NZBWF1/J mice, the proteinuria result is listed as “reduced proteinuria”. Besides, in the experiment on NZBWF1/J mice (vs. Vehicle, 33-100 mg/kg QD PO, long-term dosing), the survival entry is given as “statistically significant survival benefit; also recorded: afforded survival benefit; also recorded: significantly enhanced survival”. For the same molecule, in experiment [1], the “kidney disease as manifested by proteinuria and histologic changes” value is “suppressed”; the “production of several autoantibody specificities” value was “limited”.
